# Laboratory results: PubChem BioAssay AID2060503 (Molecular Pharmacology Branch, DTP, NCI, 2025)
# Tested on: 817829-284-R-J1-PDC complex spheroids, viability
# Assay: Anticancer human tumor 817829-284-R-J1-PDC patient-derived colon adenocarcinoma cell line growth inhibition [GQUAD]
# Conditions: for IC50: curve of first compound; for viability, T/C: stronger effect = lower value
# In short: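 Tumor cells were grown as complex spheroids with HUVEC endothelial cells and mesenchymal stem cells as stroma. G-quadruplex stabilizers were combined with targeted agents over half-log dilutions from near the clinical Cmax, or from 10 microM.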
# [1] = second compound 0.0316 µM, first compound 0.0316 µM
# [2] = second compound 0.0316 µM, first compound 0.1 µM
# [3] = second compound 0.0316 µM, first compound 0.316 µM
# [4] = second compound 0.0316 µM, first compound 1 µM
# [5] = second compound 0.0316 µM, first compound 3.16 µM
# [6] = second compound 0.0316 µM, first compound 10 µM
# [7] = second compound 0.1 µM, first compound 0.0316 µM
# [8] = second compound 0.1 µM, first compound 0.1 µM
# [9] = second compound 0.1 µM, first compound 0.316 µM
# [10] = second compound 0.1 µM, first compound 1 µM
# [11] = second compound 0.1 µM, first compound 3.16 µM
# [12] = second compound 0.1 µM, first compound 10 µM
# [13] = second compound 0.316 µM, first compound 0.0316 µM
# [14] = second compound 0.316 µM, first compound 0.1 µM
# [15] = second compound 0.316 µM, first compound 0.316 µM
# [16] = second compound 0.316 µM, first compound 1 µM
# [17] = second compound 0.316 µM, first compound 3.16 µM
# [18] = second compound 0.316 µM, first compound 10 µM
# [19] = second compound 1 µM, first compound 0.0316 µM
# [20] = second compound 1 µM, first compound 0.1 µM
# [21] = second compound 1 µM, first compound 0.316 µM
# [22] = second compound 1 µM, first compound 1 µM
# [23] = second compound 1 µM, first compound 3.16 µM
# [24] = second compound 1 µM, first compound 10 µM
# [25] = second compound 3.16 µM, first compound 0.0316 µM
# [26] = second compound 3.16 µM, first compound 0.1 µM
# [27] = second compound 3.16 µM, first compound 0.316 µM
# [28] = second compound 3.16 µM, first compound 1 µM
# [29] = second compound 3.16 µM, first compound 3.16 µM
# [30] = second compound 3.16 µM, first compound 10 µM
# [31] = second compound 10 µM, first compound 0.0316 µM
# [32] = second compound 10 µM, first compound 0.1 µM
# [33] = second compound 10 µM, first compound 0.316 µM
# [34] = second compound 10 µM, first compound 1 µM
# [35] = second compound 10 µM, first compound 3.16 µM
# [36] = second compound 10 µM, first compound 10 µM
# 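Further: spheroids exposed to agents for 7 days before readout.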
# 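Wherever viability, T/C is given: percent viability relative to DMSO vehicle control taken as 100%.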
structure (smiles),measurement,setting,value
Cc1cccc(N(C)C(=O)C2C(O)CCN2c2nc(C)cc(C(F)(F)F)c2C#N)c1 (stereo unspecified) + Cc1cnc(CNC(=O)c2c(=O)c3ccc(N4CCCN(C)CC4)nc3n3c2sc2ccccc23)cn1,IC50,second compound 0.0316 µM,> 10000 nM
same,IC50,second compound 0.1 µM,< 31.6 nM
same,IC50,second compound 0.316 µM,< 31.6 nM
same,IC50,second compound 1 µM,< 31.6 nM
same,IC50,second compound 3.16 µM,< 31.6 nM
same,IC50,second compound 10 µM,< 31.6 nM
same,"viability, T/C",[1],85.6%
same,"viability, T/C",[2],82.6%
same,"viability, T/C",[3],81.8%
same,"viability, T/C",[4],53.1%
same,"viability, T/C",[5],91.4%
same,"viability, T/C",[6],75%
same,"viability, T/C",[7],38.5%
same,"viability, T/C",[8],36.7%
same,"viability, T/C",[9],29.3%
same,"viability, T/C",[10],36.1%
same,"viability, T/C",[11],39.3%
same,"viability, T/C",[12],33.9%
same,"viability, T/C",[13],27.7%
same,"viability, T/C",[14],30.4%
same,"viability, T/C",[15],26.6%
same,"viability, T/C",[16],25.9%
same,"viability, T/C",[17],28.6%
same,"viability, T/C",[18],23%
same,"viability, T/C",[19],19.2%
same,"viability, T/C",[20],22.1%
same,"viability, T/C",[21],22.1%
same,"viability, T/C",[22],20.2%
same,"viability, T/C",[23],22.9%
same,"viability, T/C",[24],19.1%
same,"viability, T/C",[25],20.1%
same,"viability, T/C",[26],18.9%
same,"viability, T/C",[27],20.4%
same,"viability, T/C",[28],18.8%
same,"viability, T/C",[29],18%
same,"viability, T/C",[30],17.2%
same,"viability, T/C",[31],0.19%
same,"viability, T/C",[32],0.22%
same,"viability, T/C",[33],0.21%
same,"viability, T/C",[34],0.21%
same,"viability, T/C",[35],0.24%
same,"viability, T/C",[36],0.21%
Cn1ncnc1[C@H]1c2n[nH]c(=O)c3cc(F)cc(c23)N[C@@H]1c1ccc(F)cc1 + Cc1cnc(CNC(=O)c2c(=O)c3ccc(N4CCCN(C)CC4)nc3n3c2sc2ccccc23)cn1,IC50,second compound 0.0316 µM,27.3 nM
same,IC50,second compound 0.1 µM,< 0.999 nM
same,IC50,second compound 0.316 µM,< 0.999 nM
same,IC50,second compound 1 µM,< 0.999 nM
same,IC50,second compound 3.16 µM,< 0.999 nM
same,IC50,second compound 10 µM,< 0.999 nM
same,"viability, T/C","second compound 0.0316 µM, first compound 0.000999 µM",84.5%
same,"viability, T/C","second compound 0.0316 µM, first compound 0.00316 µM",70.5%
same,"viability, T/C","second compound 0.0316 µM, first compound 0.00999 µM",58.1%
same,"viability, T/C",[1],48.8%
same,"viability, T/C","second compound 0.0316 µM, first compound 0.0999 µM",43.6%
same,"viability, T/C",[3],42.4%
same,"viability, T/C","second compound 0.1 µM, first compound 0.000999 µM",38.6%
same,"viability, T/C","second compound 0.1 µM, first compound 0.00316 µM",35.7%
same,"viability, T/C","second compound 0.1 µM, first compound 0.00999 µM",29.8%
same,"viability, T/C",[7],34.2%
same,"viability, T/C","second compound 0.1 µM, first compound 0.0999 µM",31.7%
same,"viability, T/C",[9],29.6%
same,"viability, T/C","second compound 0.316 µM, first compound 0.000999 µM",26.3%
same,"viability, T/C","second compound 0.316 µM, first compound 0.00316 µM",25.3%
same,"viability, T/C","second compound 0.316 µM, first compound 0.00999 µM",27.7%
same,"viability, T/C",[13],26.7%
same,"viability, T/C","second compound 0.316 µM, first compound 0.0999 µM",26.4%
same,"viability, T/C",[15],25.3%
same,"viability, T/C","second compound 1 µM, first compound 0.000999 µM",21.2%
same,"viability, T/C","second compound 1 µM, first compound 0.00316 µM",22.5%
same,"viability, T/C","second compound 1 µM, first compound 0.00999 µM",23.2%
same,"viability, T/C",[19],22.9%
same,"viability, T/C","second compound 1 µM, first compound 0.0999 µM",23.3%
same,"viability, T/C",[21],22%
same,"viability, T/C","second compound 3.16 µM, first compound 0.000999 µM",20.3%
same,"viability, T/C","second compound 3.16 µM, first compound 0.00316 µM",21%
same,"viability, T/C","second compound 3.16 µM, first compound 0.00999 µM",19.8%
same,"viability, T/C",[25],19.4%
same,"viability, T/C","second compound 3.16 µM, first compound 0.0999 µM",20.4%
same,"viability, T/C",[27],16.3%
same,"viability, T/C","second compound 10 µM, first compound 0.000999 µM",0.16%
same,"viability, T/C","second compound 10 µM, first compound 0.00316 µM",0.2%
same,"viability, T/C","second compound 10 µM, first compound 0.00999 µM",0.19%
same,"viability, T/C",[31],0.17%
same,"viability, T/C","second compound 10 µM, first compound 0.0999 µM",0.19%
same,"viability, T/C",[33],0.2%
O=C(c1cc(Cc2n[nH]c(=O)c3ccccc23)ccc1F)N1CCN(C(=O)C2CC2)CC1 + Cc1cnc(CNC(=O)c2c(=O)c3ccc(N4CCCN(C)CC4)nc3n3c2sc2ccccc23)cn1,IC50,second compound 0.0316 µM,1080 nM
same,IC50,second compound 0.1 µM,< 31.6 nM
same,IC50,second compound 0.316 µM,< 31.6 nM
same,IC50,second compound 1 µM,< 31.6 nM
same,IC50,second compound 3.16 µM,< 31.6 nM
same,IC50,second compound 10 µM,< 31.6 nM
same,"viability, T/C",[1],78.9%
same,"viability, T/C",[2],65.2%
same,"viability, T/C",[3],58.5%
same,"viability, T/C",[4],51.6%
same,"viability, T/C",[5],44.2%
same,"viability, T/C",[6],35.6%
same,"viability, T/C",[7],30.9%
same,"viability, T/C",[8],33.5%
same,"viability, T/C",[9],32.9%
same,"viability, T/C",[10],32.1%
same,"viability, T/C",[11],33.8%
same,"viability, T/C",[12],29.9%
same,"viability, T/C",[13],24.3%
same,"viability, T/C",[14],24.5%
same,"viability, T/C",[15],25.1%
same,"viability, T/C",[16],23.7%
same,"viability, T/C",[17],26.4%
same,"viability, T/C",[18],27.4%
same,"viability, T/C",[19],18.6%
same,"viability, T/C",[20],23.9%
same,"viability, T/C",[21],20.3%
same,"viability, T/C",[22],22.8%
same,"viability, T/C",[23],23.1%
same,"viability, T/C",[24],23.4%
same,"viability, T/C",[25],18.1%
same,"viability, T/C",[26],21%
same,"viability, T/C",[27],21.3%
same,"viability, T/C",[28],19%
same,"viability, T/C",[29],20%
same,"viability, T/C",[30],21.4%
same,"viability, T/C",[31],0.17%
same,"viability, T/C",[32],0.18%
same,"viability, T/C",[33],0.22%
same,"viability, T/C",[34],0.2%
same,"viability, T/C",[35],0.22%
same,"viability, T/C",[36],0.21%
